From PubChem BioAssay (NCI)
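Where inhibition never reached the appropriate level, the endpoint shown equals the highest concentration tested. Otherwise, values were interpolated linearly from a five-concentration, 48-hour dose response in 96-well plates. TGI marks complete inhibition of growth.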

Key:
Test in all cases: NCI-60 cell line screen, 48 h
K-562 leukemia = system: K-562 leukemia
PC-3 prostate = system: PC-3 prostate
SK-MEL-5 melanoma = system: SK-MEL-5 melanoma
NCI-H522 lung = system: NCI-H522 lung
SNB-19 CNS = system: SNB-19 CNS
SK-OV-3 ovarian = system: SK-OV-3 ovarian
OVCAR-5 ovarian = system: OVCAR-5 ovarian
DU-145 prostate = system: DU-145 prostate
SF-539 CNS = system: SF-539 CNS
SK-MEL-2 melanoma = system: SK-MEL-2 melanoma
NCI/ADR-RES ovarian = system: NCI/ADR-RES ovarian
HOP-62 NSCLC = system: HOP-62 NSCLC
CCRF-CEM leukemia = system: CCRF-CEM leukemia
M14 melanoma = system: M14 melanoma
CAKI-1 renal = system: CAKI-1 renal
MDA-N = system: MDA-N
SN12C renal = system: SN12C renal
UACC-62 melanoma = system: UACC-62 melanoma
MALME-3M melanoma = system: MALME-3M melanoma
OVCAR-4 ovarian = system: OVCAR-4 ovarian
MDA-MB-435 = system: MDA-MB-435
U251 CNS = system: U251 CNS
A498 renal = system: A498 renal
MDA-MB-231 breast = system: MDA-MB-231 breast
EKVX NSCLC = system: EKVX NSCLC
HS 578T breast = system: HS 578T breast
BT-549 breast = system: BT-549 breast
COLO 205 colon = system: COLO 205 colon
SR leukemia = system: SR leukemia
NCI-H23 lung = system: NCI-H23 lung
UO-31 renal = system: UO-31 renal
SK-MEL-28 melanoma = system: SK-MEL-28 melanoma
NCI-H460 lung = system: NCI-H460 lung
HOP-92 NSCLC = system: HOP-92 NSCLC
T-47D breast = system: T-47D breast
HL-60(TB) leukemia = system: HL-60(TB) leukemia
MCF7 breast = system: MCF7 breast
RPMI-8226 leukemia = system: RPMI-8226 leukemia
OVCAR-8 ovarian = system: OVCAR-8 ovarian
NCI-H226 lung = system: NCI-H226 lung
TK-10 renal = system: TK-10 renal
SF-268 CNS = system: SF-268 CNS
SW-620 colon = system: SW-620 colon
786-0 renal = system: 786-0 renal
A549 NSCLC = system: A549 NSCLC
SNB-75 CNS = system: SNB-75 CNS
HCT-116 colon = system: HCT-116 colon
MOLT-4 leukemia = system: MOLT-4 leukemia
HCT-15 colon = system: HCT-15 colon
SF-295 CNS = system: SF-295 CNS
LOX IMVI melanoma = system: LOX IMVI melanoma
KM12 colon = system: KM12 colon
IGROV1 ovarian = system: IGROV1 ovarian
OVCAR-3 ovarian = system: OVCAR-3 ovarian
UACC-257 melanoma = system: UACC-257 melanoma
RXF 393 renal = system: RXF 393 renal
HT29 colon = system: HT29 colon
ACHN renal = system: ACHN renal
HCC-2998 colon = system: HCC-2998 colon

Measured: TGI

COC(=O)C1C(OS(=O)(=O)O)CCC2CN3CCc4c([nH]c5ccccc45)C3CC21 (stereo not drawn)
> 100 µM: K-562 leukemia | PC-3 prostate | SK-MEL-5 melanoma | NCI-H522 lung | SNB-19 CNS | SK-OV-3 ovarian | OVCAR-5 ovarian | DU-145 prostate | SF-539 CNS | SK-MEL-2 melanoma | NCI/ADR-RES ovarian | HOP-62 NSCLC | CCRF-CEM leukemia | M14 melanoma | CAKI-1 renal | MDA-N | SN12C renal | UACC-62 melanoma | MALME-3M melanoma | OVCAR-4 ovarian | MDA-MB-435 | U251 CNS | A498 renal | MDA-MB-231 breast | EKVX NSCLC | HS 578T breast | BT-549 breast | COLO 205 colon | SR leukemia | NCI-H23 lung | UO-31 renal | SK-MEL-28 melanoma | NCI-H460 lung | HOP-92 NSCLC | T-47D breast | HL-60(TB) leukemia | MCF7 breast | RPMI-8226 leukemia | OVCAR-8 ovarian | NCI-H226 lung | TK-10 renal | SF-268 CNS | SW-620 colon | 786-0 renal | A549 NSCLC | SNB-75 CNS | HCT-116 colon | MOLT-4 leukemia | HCT-15 colon | SF-295 CNS | LOX IMVI melanoma | KM12 colon | IGROV1 ovarian | OVCAR-3 ovarian | UACC-257 melanoma | RXF 393 renal | HT29 colon | ACHN renal

Cc1cc(S(=O)(=O)n2cc[nH]c2=O)c(SCCCN(C)C)cc1Cl
> 100 µM: K-562 leukemia | PC-3 prostate | SK-MEL-5 melanoma | NCI-H522 lung | SNB-19 CNS | SK-OV-3 ovarian | OVCAR-5 ovarian | DU-145 prostate | SF-539 CNS | SK-MEL-2 melanoma | NCI/ADR-RES ovarian | HOP-62 NSCLC | CCRF-CEM leukemia | M14 melanoma | CAKI-1 renal | MDA-N | SN12C renal | UACC-62 melanoma | MALME-3M melanoma | OVCAR-4 ovarian | MDA-MB-435 | U251 CNS | A498 renal | MDA-MB-231 breast | EKVX NSCLC | HS 578T breast | HCC-2998 colon | BT-549 breast | COLO 205 colon | SR leukemia | NCI-H23 lung | UO-31 renal | SK-MEL-28 melanoma | NCI-H460 lung | T-47D breast | MCF7 breast | OVCAR-8 ovarian | NCI-H226 lung | TK-10 renal | SF-268 CNS | SW-620 colon | 786-0 renal | A549 NSCLC | HCT-116 colon | MOLT-4 leukemia | HCT-15 colon | SF-295 CNS | LOX IMVI melanoma | KM12 colon | IGROV1 ovarian | OVCAR-3 ovarian | UACC-257 melanoma | RXF 393 renal | HT29 colon | ACHN renal
